Literature values as cited in patent US20180284402A1, “TOPICAL ANALGESIC PAIN RELIEF FORMULATIONS, MANUFACTURE AND METHODS OF USE THEREOF” (priority 2016, published 2018).
Read-outs that look alike come from different tables or passages of the source.

Legend:
human TRPM8 (hTRPM8) = human TRPM8 (hTRPM8) (Homo sapiens, UniProt Q7Z2W7); conditions: Takaishi 2012
hTRPA1 [1] = molecular target: T1, hTRPA1 (Homo sapiens, UniProt O75762)
hTRPV2 = molecular target: T2, hTRPV2 (Homo sapiens, UniProt Q9Y5S1); conditions: Takaishi 2012
T2 sequence (Q9Y5S1 1-764): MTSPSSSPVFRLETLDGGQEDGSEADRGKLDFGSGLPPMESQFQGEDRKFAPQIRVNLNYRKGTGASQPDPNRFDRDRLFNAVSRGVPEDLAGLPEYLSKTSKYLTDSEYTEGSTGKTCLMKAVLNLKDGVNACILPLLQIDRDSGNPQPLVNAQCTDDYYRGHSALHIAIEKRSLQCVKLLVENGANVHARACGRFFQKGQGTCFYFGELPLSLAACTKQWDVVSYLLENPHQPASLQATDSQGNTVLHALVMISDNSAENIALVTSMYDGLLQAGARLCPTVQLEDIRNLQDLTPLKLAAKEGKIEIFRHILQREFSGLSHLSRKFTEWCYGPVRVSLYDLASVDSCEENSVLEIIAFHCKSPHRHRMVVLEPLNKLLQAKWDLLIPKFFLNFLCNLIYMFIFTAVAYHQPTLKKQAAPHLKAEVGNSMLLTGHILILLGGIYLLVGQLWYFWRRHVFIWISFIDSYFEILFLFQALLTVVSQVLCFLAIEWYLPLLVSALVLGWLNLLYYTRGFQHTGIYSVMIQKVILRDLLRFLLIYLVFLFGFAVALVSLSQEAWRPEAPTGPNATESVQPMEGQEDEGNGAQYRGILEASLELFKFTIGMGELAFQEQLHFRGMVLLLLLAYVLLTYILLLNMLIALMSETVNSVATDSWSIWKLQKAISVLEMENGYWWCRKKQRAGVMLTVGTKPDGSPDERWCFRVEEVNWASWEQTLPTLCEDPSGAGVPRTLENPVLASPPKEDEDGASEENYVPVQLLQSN

hTRPV1 = hTRPV1 (Homo sapiens, UniProt Q8NER1); conditions: Takaishi 2012
Chain of hTRPV1 (Q8NER1 whole entry): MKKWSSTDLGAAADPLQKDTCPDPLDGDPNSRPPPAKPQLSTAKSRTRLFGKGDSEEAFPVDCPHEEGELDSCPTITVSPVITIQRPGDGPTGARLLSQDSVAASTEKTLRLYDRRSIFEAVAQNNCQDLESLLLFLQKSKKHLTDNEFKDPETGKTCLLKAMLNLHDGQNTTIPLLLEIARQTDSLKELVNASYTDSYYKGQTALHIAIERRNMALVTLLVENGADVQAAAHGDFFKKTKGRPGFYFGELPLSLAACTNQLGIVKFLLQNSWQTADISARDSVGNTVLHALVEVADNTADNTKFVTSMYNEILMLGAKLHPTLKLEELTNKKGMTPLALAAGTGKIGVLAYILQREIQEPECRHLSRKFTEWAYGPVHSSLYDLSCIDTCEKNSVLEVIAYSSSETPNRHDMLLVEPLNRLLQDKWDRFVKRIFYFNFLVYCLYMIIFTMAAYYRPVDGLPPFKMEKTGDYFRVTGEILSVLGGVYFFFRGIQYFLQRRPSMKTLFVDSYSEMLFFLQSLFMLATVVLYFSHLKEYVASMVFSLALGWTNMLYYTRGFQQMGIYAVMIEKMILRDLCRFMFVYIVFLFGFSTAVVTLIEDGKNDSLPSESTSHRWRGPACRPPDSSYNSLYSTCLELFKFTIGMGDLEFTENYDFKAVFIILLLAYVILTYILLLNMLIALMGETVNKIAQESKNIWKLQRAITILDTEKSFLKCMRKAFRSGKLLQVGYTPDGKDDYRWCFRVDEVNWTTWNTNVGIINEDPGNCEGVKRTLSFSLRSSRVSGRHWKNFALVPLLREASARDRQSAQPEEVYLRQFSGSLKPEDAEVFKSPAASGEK

hTRPA1 [2] = molecular target: T1, hTRPA1; conditions: compound at 1 mM; for inhibition of hTRPA1 activation by allyl isothiocyanate (mustard oil): allyl isothiocyanate at 10 uM; for inhibition of hTRPA1 activation by menthol: menthol at 1 mM
TRPV1 = conditions: Morales-Lazaro 2016
pain and itch responses = conditions: mice

T1 sequence (O75762 whole entry): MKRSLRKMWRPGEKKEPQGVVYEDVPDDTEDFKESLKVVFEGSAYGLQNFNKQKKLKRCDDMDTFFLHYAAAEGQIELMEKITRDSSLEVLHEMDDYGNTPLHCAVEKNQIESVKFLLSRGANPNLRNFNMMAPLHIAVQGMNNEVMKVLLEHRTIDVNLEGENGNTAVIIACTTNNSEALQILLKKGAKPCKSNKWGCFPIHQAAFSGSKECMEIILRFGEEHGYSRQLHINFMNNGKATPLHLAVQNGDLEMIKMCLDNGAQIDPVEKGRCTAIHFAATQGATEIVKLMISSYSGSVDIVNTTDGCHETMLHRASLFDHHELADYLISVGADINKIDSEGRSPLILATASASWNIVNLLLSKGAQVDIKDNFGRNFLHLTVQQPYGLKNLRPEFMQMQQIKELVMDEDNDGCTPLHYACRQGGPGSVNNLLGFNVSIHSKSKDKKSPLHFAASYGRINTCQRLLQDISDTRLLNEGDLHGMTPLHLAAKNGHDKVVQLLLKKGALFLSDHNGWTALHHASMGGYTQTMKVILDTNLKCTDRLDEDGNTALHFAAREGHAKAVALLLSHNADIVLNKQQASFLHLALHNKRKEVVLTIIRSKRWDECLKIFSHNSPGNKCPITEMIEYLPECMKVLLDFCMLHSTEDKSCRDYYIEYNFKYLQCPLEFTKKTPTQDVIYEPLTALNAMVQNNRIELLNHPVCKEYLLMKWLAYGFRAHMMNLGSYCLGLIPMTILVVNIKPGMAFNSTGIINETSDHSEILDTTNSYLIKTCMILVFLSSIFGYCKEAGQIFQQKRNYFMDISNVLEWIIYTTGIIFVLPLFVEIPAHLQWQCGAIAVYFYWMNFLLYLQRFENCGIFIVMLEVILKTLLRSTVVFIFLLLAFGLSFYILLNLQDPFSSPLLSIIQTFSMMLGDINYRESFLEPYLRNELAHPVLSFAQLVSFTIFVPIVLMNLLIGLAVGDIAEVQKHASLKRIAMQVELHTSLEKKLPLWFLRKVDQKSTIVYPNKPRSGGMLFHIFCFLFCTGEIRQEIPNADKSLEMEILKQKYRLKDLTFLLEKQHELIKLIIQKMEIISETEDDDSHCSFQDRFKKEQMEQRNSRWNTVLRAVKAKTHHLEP
Chain of human TRPM8 (hTRPM8) (Q7Z2W7 whole entry): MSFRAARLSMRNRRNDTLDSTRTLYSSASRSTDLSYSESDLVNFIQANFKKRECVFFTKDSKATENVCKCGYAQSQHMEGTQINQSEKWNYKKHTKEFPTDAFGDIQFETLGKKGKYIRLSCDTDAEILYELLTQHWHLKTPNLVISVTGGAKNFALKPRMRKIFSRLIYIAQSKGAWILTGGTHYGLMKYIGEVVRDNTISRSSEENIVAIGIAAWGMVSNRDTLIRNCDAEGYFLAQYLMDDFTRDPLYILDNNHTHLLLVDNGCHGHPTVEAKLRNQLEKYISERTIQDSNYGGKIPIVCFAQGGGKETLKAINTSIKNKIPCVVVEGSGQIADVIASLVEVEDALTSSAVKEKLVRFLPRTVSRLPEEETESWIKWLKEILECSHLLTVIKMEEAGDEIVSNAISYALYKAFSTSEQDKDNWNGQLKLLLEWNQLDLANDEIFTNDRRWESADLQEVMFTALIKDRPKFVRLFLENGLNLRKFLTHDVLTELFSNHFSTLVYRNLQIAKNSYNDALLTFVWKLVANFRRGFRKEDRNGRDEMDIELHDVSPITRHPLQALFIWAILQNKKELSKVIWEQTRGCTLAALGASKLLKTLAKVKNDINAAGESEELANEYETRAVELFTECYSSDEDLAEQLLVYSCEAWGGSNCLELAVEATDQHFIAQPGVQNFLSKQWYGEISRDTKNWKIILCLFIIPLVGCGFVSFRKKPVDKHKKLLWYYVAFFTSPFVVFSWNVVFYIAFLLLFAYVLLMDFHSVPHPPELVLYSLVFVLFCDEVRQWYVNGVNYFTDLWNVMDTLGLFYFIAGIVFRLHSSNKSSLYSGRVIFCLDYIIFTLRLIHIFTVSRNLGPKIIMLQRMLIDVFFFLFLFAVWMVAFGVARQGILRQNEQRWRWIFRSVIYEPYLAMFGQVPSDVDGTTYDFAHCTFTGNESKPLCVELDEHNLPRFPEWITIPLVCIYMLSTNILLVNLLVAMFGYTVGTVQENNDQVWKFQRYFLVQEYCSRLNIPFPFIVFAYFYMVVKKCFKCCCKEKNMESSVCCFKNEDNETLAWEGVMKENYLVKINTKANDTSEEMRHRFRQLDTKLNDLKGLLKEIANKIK

**Q.** For `CC12CCC(CC1)C(C)(C)O2` [1,8-cineole], which “activation of human TRPM8 (hTRPM8)” value (human TRPM8 (hTRPM8)) is on record?
**A.** activates

**Q.** And the “activation of hTRPA1” value (hTRPA1 [1]; Takaishi 2012)?
**A.** without activating

**Q.** What about the “activation of hTRPA1” value (hTRPA1 [1]; Takaishi 2014) of the same molecule?
**A.** did not activate

**Q.** What about the “activation of hTRPV2” value (hTRPV2) of the same molecule?
**A.** did not activate

**Q.** What about the “activation of hTRPV1” value (hTRPV1) of the same molecule?
**A.** did not activate

**Q.** Which “activation of hTRPA1” value (hTRPA1 [1]; Takaishi 2014) does the source give for `CC1(C)[C@@H]2CC[C@@]1(C)[C@](C)(O)C2` [2-methylosoborneol] here?
**A.** did not activate

**Q.** What about the “inhibition of hTRPA1 activation by allyl isothiocyanate (mustard oil)” value (hTRPA1 [2]) of the same molecule?
**A.** completely inhibited

**Q.** What about the “inhibition of hTRPA1 activation by menthol” value (hTRPA1 [2]) of the same molecule?
**A.** completely inhibited

**Q.** What does the source list for `CC1(C)C2CCC1(C)C(O)C2` (stereo not drawn) [borneol]?
**A.** activation of hTRPA1 (hTRPA1 [1]; Takaishi 2014): did not activate; inhibition of hTRPA1 activation by allyl isothiocyanate (mustard oil) (hTRPA1 [2]): completely inhibited; inhibition of hTRPA1 activation by menthol (hTRPA1 [2]): completely inhibited

**Q.** Which “activation of hTRPA1” value (hTRPA1 [1]; Takaishi 2014) does the source give for `CC12CCC(CC1=O)C2(C)C` (stereo not drawn) [camphor] here?
**A.** did not activate

**Q.** Which “activation of hTRPA1” value (hTRPA1 [1]; Takaishi 2014) does the source give for `CC12CCC(C1)C(C)(C)C2O` (stereo not drawn) [fenchyl alcohol] here?
**A.** did not activate

**Q.** What about the “inhibition of hTRPA1 activation by allyl isothiocyanate (mustard oil)” value (hTRPA1 [2]) of the same molecule?
**A.** completely inhibited

**Q.** What about the “inhibition of hTRPA1 activation by menthol” value (hTRPA1 [2]) of the same molecule?
**A.** completely inhibited

**Q.** For `O=C1CC2CC[C@H]1C2` [norcamphor], which “activation of hTRPA1” value (hTRPA1 [1]; Takaishi 2014) is on record?
**A.** did not activate

**Q.** With `CCCCCCCC/C=C\CCCCCCCC(=O)O` [oleic acid] as the molecule, how does the TRPV1 activity (TRPV1) read?
**A.** inhibited

**Q.** And the “pain and itch responses” value (pain and itch responses)?
**A.** inhibited
